These results are taken from ChEMBL document CHEMBL1122215, “2-(Aminomethyl)phenols, a new class of saluretic agents. 5. Fused-ring analogues” (1983).

Assay [1] relates to Canis familiaris. The assay can be described thus: Saluretic property in average of two anesthetized dogs after 5 mg/kg intravenous administration. The class given is functional, Canis lupus familiaris.
For assay [2], the system named is Rattus norvegicus. As to the kind of experiment: Saluretic property after 80 mg/kg oral administration in rats. The class given is functional.
Assay [3] concerns Canis familiaris. As to the kind of experiment: Saluretic property in average of one used conscious dog after 5 mg/kg intravenous administration. The class given is functional, Canis lupus familiaris.
Assay [4] relates to Rattus norvegicus. As to the kind of experiment: Saluretic property after 50 mg/kg oral administration in rats. The class given is functional.
The test system of assay [5] is Canis familiaris. The assay can be described thus: Saluretic property in average of two conscious dogs after 5 mg/kg intravenous administration. The class given is functional, Canis lupus familiaris.
Assay [6] concerns Canis familiaris. The assay can be described thus: Saluretic property in average of single anesthetized dogs after 5 mg/kg intravenous administration. The class given is functional, Canis lupus familiaris.
Assay [7] deals with Canis familiaris. The assay can be described thus: Saluretic property in average of three anesthetized dogs after 5 mg/kg intravenous administration. The class given is functional, Canis lupus familiaris.
Assay [8] has as its system Canis familiaris. As to the kind of experiment: Saluretic property in average of two anesthetized dogs after 5 mg/kg iv administration. The class given is functional, Canis lupus familiaris.
The subject of assay [9] is Canis familiaris. As to the kind of experiment: Saluretic property in average of two anesthetized dogs after 1 mg/kg intravenous administration. The class given is functional, Canis lupus familiaris.

Turning to `Cl.Cl.NCc1c(O)ccc2cccnc12`, the Score in [1] and in assay [2] was 0 throughout.
Regarding `Cl.Cl.NCc1c(O)ccc2ncccc12`, the Score was 1 in assay [3] and 0 in assay [4].
With `Cl.Cl.Cl.NCc1cc(Cl)c2cccnc2c1O`, in [5], the Score is 1.
For `CC1Nc2ccc(O)c(CN)c2S1.Cl.Cl` (centres undefined), the Score in assay [1] and in [4] was 0 in each case.
For `Cl.Cl.NCc1ccc2cnccc2c1O`, the values for the Score in assay [6] and in [4] were 1 and 0, respectively.
As for `Cl.NCc1c(O)ccc2nccnc12`, the Score was 1 in assay [7] and 0 in assay [4].
As for `Cl.NCc1cc(Cl)c2ccccc2c1O`, the values for the Score in assay [1] and in assay [4] were 6 and 2, respectively.
Taken in the same sequence, the figures for `Cc1cc(C)c2c(c1O)C(N)CC2.Cl` (centres undefined) were 0 and 0.
Regarding `Cc1cc(=O)oc2ccc(O)c(CN)c12.Cl`, the Score in assay [8] and in [4] was 0 in each case.
Turning to `Cl.NCc1c(O)ccc2ccccc12`, the Score in assay [1] was 1.
Turning to `Cc1c(O)c(CN)c(C)c2c1CCCC2.Cl`, the Score in [5] is 4; in assay [4], 5.
`Cl.NC1CCc2c(Cl)ccc(O)c21` (centres undefined) had a Score in assay [1] of 1.
Regarding `CCC1Cc2c(Cl)c(Cl)c(O)c(CN)c2C1.Cl` (centres undefined), the Score in [1] and in [4] was 0 throughout.
Regarding `NCc1ccccc1O` [2-(AMINOMETHYL)PHENOL], the Score in [8] and in assay [4] was 0 throughout.
As to `NS(=O)(=O)c1cc(C(=O)O)c(NCc2ccco2)cc1Cl` [FUROSEMIDE], the values for the Score in [9] and in [4] were 6 and 3, respectively.
`NS(=O)(=O)c1cc2c(cc1Cl)NCNS2(=O)=O` [HYDROCHLOROTHIAZIDE]: the Score came to 1 in assay [7] and 2 in assay [4].
